Reference: US20240108687A1, “COMPOSITIONS AND METHODS FOR USING COMBINATIONS OF ACTIN-BASED PEPTIDES TO MODULATE CELLULAR BIOACTIVITY” (Virongy L.L.C., priority 2021, published 2024)

Tests used:
HIV-1 [1] = settings: CD4 T lymphocytes; cited from earlier work
Influenza A virus (IAV) [2] = settings: IAV-infected mice vs solvent-treated control; cited from earlier work
Influenza A virus (IAV) [3] = settings: cited from earlier work
[4] = test system: Murine leukemia virus (MLV), Avian leukosis virus (ALV), and Human immunodeficiency virus (HIV); settings: HEK293T cells transfected with viral receptors; cited from earlier work
HIV-1 [5] = settings: cited from earlier work
Influenza A virus (IAV) [6] = settings: MDCK cells; cited from earlier work
Influenza A virus (IAV) [7] = settings: cited from earlier work; remark: listed apart in the source
Measles virus (MeV) = settings: cited from earlier work
HIV-1 [8] = settings: cited from earlier work; remark: listed apart in the source
[9] = test system: lenti-GFP vector viral particles; assay: Lentiviral vector (lenti-GFP) transduction of cells, flow cytometry; settings: B11-20AA plus polybrene, 3 days post infection, viable cells (low PI)
Method: Viral transduction of cells was measured at 3 days post infection by flow cytometry. (A) uninfected cells control. (B) Cells were infected with a lenti-GFP vector viral particles. […] Transduction efficiency was measured by the percentage of GFP+ cells. PI,_propidium iodide, was added before flow cytometry for cytotoxicity control (FL3). GFP+ cells were counted only when the cells are viable (low PI staining).

[10] = test system: Lenti-GFP virion particles; assay: Lentiviral virion infectivity after virion incorporation of actin-based peptide; settings: virions first incubated with peptide to allow virion incorporation; equal amount of virions
Method: (A) Uninfected cells control. (B) Lenti-GFP virion particles were used to directly infect target cells. […] An equal amount of virion particles in (B) and (C) were used for infection. Virion infectivity was measured by the percentage of GFP+ cells.

HEK293T cells = assay: Liposome transfection of GFP-expression vector DNA with actin-based peptide; format: cell-based; settings: Lenti-GFP DNA + liposome + peptide, 48 hours post transfection
Method: FIG. 6: Example of combination of actin-based peptide with liposome to deliver nucleic acids into cells. HEK293T cells were transfected with a GFP-expression vector DNA (Lenti-GFP) in complex with liposome (DNA+Lipo) or with liposome and an actin-based peptide (N9-A20) (DNA+Lipo+N9). Following transfection, cells were quantified for GFP expression at 48 hours post transfection by flow cytometry.

CD144 (VE-cadherin) = assay: Surface expression of CD144 on H9 lymphocytes, flow cytometry; format: cell-based, Human; settings: H9 lymphocytes treated 40 minutes
Method: (§1) FIG. 7: Example of actin-based peptide to enhance surface expression of multiple cellular receptors including CD325 (N-cadherin), CD144 (VE-cadherin), and CD324 (E-cadherin), which are surface molecule for cell-cell and cell-extracellular matrix binding and adhesion. (A) Human H9 lymphocyte (derivative of HutT 78 cell, from ATCC) were not treated or treated with an actin-based peptide (N7-20AA) for 40 minutes. Cells were stained on ice with PerCy-Cy5.5-labeled mouse anti-human CD325 antibody. Surface expression of CD325 before and after N7-20AA was quantified by flow cytometer. […] (B) Human H9 lymphocyte were not treated or treated with an actin-based peptide (N7-20AA) for 40 minutes. Cells were stained on ice with FITC-labeled mouse anti-human CD144 antibody. Surface expression of CD144 before and after N7-20AA was quantified by flow cytometer. […] (C) Human H9 lymphocyte were not treated or treated with an actin-based peptide (N7-20AA) for 40 minutes. Cells were stained on ice with PE-labeled mouse anti-human CD324 antibody. Surface expression of CD324 before and after N7-20A was quantified by flow cytometer.

CD324 (E-cadherin) = assay: Surface expression of CD324 on H9 lymphocytes, flow cytometry; format: cell-based, Human; settings: H9 lymphocytes treated 40 minutes
Method: as §1

CD325 (N-cadherin) = assay: Surface expression of CD325 on H9 lymphocytes, flow cytometry; format: cell-based, Human; settings: H9 lymphocytes treated 40 minutes
Method: as §1

For O=C1CSC(c2cccc(Br)c2)N1c1cc(Cl)ccc1O (stereo not drawn) [CK-548], the “CD4 T cell activation and cytotoxicity at effective dosages” value (HIV-1 [1]) is given as “did not affect CD4 T cell activation or induce cytotoxicity” and the HIV-1 replication (HIV-1 [1]) is given as “dramatically reduced HIV-1 replication”.
In the case of CCN(CC)CCCC(C)Nc1nc(C)cc(Nc2ccc3nc(C)cc(N)c3c2)n1 (stereo not drawn) [NSC23766], the Body weights (Influenza A virus (IAV) [2]) is listed as “increased body weights”, the Survivability (Influenza A virus (IAV) [2]) is listed as “higher survivability” and the “Titer of IAV in lung tissue” value (Influenza A virus (IAV) [2]) is listed as “reduce titer of IAV in lung tissue”. The IC50 (Influenza A virus (IAV) [3]; A549 cells, read-out: IC50, reduction of viral replication) was 22 µM and the Viral protein expression (Influenza A virus (IAV) [3]) was “reduced viral protein expression”.
For Cc1ccc2c(c1)C(=O)C1(O)CCN(c3ccccc3)C1=N2 (stereo not drawn) [blebbistatin], the Virus surfing [4] is given as “eliminated virus surfing”.
In the case of C=C1[C@@H](C)[C@H]2[C@H](Cc3ccccc3)NC(=O)[C@]23[C@H](OC(C)=O)/C=C/[C@@](C)(O)C(=O)[C@@H](C)C/C=C/[C@H]3[C@@H]1O [cytochalasin D], the “Accumulation of early and late reverse transcription products” value (HIV-1 [5]; pretreating cells, not 2 hours post-infection) is listed as “reduced the accumulation of early and late reverse transcription products”, the “Reduction of nuclear accumulation of late RT products” value (HIV-1 [5]; pretreatment) is listed as 25 fold and the “Distribution of plasma membrane HA, lipid rafts and actin” value (from here on “Distribution of plasma membrane HA”) (Influenza A virus (IAV) [6]) is listed as “dramatically redistributed”. For the same compound, the Virus surfing [4] was “eliminated virus surfing”, the “Titers of filamentous and spherical virions” value (Influenza A virus (IAV) [7]) was “dramatically abrogated the titers of the filamentous, but not spherical, virions” and the “Actin and H co-immunoprecipitation with M protein” value (Measles virus (MeV)) was “dramatically reduced actin co-immunoprecipitating with M, while enhancing H co-immunoprecipitation”. The “Co-transport of M-RNP to the cell surface” value (Measles virus (MeV)) was “reduces co-transport of M-RNP to the cell surface” and the “Rate of cell-cell fusion” value (Measles virus (MeV)) was “enhanced the rate of cell-cell fusion”.
In the case of C/C1=C\[C@H](C)C[C@H](C)OC(=O)C[C@H](c2ccc(O)cc2)NC(=O)[C@@H](Cc2c(Br)[nH]c3ccccc23)N(C)C(=O)[C@H](C)NC(=O)[C@@H](C)C1 [jasplakinolide], the “Distribution of plasma membrane HA” value (Influenza A virus (IAV) [6]) is listed as “dramatically redistributed”, the “Co-transport of M-RNP to the cell surface” value (Measles virus (MeV)) is listed as “not affecting M-RNP co-transport” and the Free-virus production (Measles virus (MeV)) is listed as “blocked free-virus production”.
For C/C1=C/C(=O)O[C@@H]2C[C@@H](CC[C@H](C)/C=C\C=C\CC1)O[C@@](O)([C@@H]1CSC(=O)N1)C2 [latrunculin A], the “gag mRNA localisation” value (HIV-1 [8]) is given as “caused retention of gag mRNA in the nucleus” and the “Distribution of plasma membrane HA” value (Influenza A virus (IAV) [6]) is given as “dramatically redistributed”.
In the case of “RRRRRRRR(G/A)0-20DIKEKLCYVALDFEQEMATA [B11-20AA]”, the “Transduction efficiency (percentage of GFP+ cells)” value [9] is reported as “Enhancement of lentiviral vector transduction” and the “Virion infectivity (percentage of GFP+ cells)” value [10] is reported as “Enhancement of lentiviral virion infectivity”.
In the case of “RRRRRRRR(G/A)0-20HTVPIYEGYALPHAILRLDL [N9-A20]”, the “Delivery of nucleic acids into cells (GFP expression)” value (HEK293T cells) is reported as “enhances delivery of nucleic acids into cells”.
For “RRRRRRRR(G/A)0-20QIMFETFNTPAMYVAIQAVL [N7-20AA]”, the “Surface expression of CD144” value (CD144 (VE-cadherin)) was “up-regulation of surface expression of CD144”, the “Surface expression of CD324” value (CD324 (E-cadherin)) was “up-regulation of surface expression of CD324” and the “Surface expression of CD325” value (CD325 (N-cadherin)) was “up-regulation of surface expression of CD325”.
